Reference: patent publication US20250147039A1, “Compounds for complexation of rare earth elements and/or s-, p-, d- block metals, their coordination compounds, peptide conjugates, method of their preparation and use thereof” (USTAV ORGANICKE CHEMIE A BIOCHEMIE AV CR V.V.I., priority 2021, published 2025)

Key:
[1] = Formation of 1,5-cz-[M(Lig)] from Lig and M^III ions (metal dependent click-zip) (Charts 4, 5); type: physicochemical; conditions: MOPS/NaOH buffer pH 7.0; for conversion to 1,5-cz-[M(Lig)], Sc^III / conversion to 1,5-cz-[M(Lig)], Y^III: TD728, TD827 in 50% i-PrOH; for conversion to 1,5-cz-[M(Lig)], Y^III: TD714 sum of two diastereoisomers
[2] = Formation of 1,5-cz-[Ln(Lig)] from Lig and Ln^III ions (metal dependent click-zip), MOPS/NaOH buffer pH 7.0, analytical HPLC (Charts 1, 2); conditions: MOPS/NaOH buffer pH 7.0

In the case of C#Cc1cccc(CN2CCN(CC(=O)O)CCN(Cc3cc(C(=O)OC)cc(CN=[N+]=[N-])n3)CCN(CC(=O)O)CC2)n1 [TD1092], the “conversion to 1,5-cz-[Ln(Lig)] with hydrolysed group in the side chain, Sc^III” value ([1]; 1 week at 80° C.) is reported as 17%, the “conversion to 1,5-cz-[Ln(Lig)] with hydrolysed group in the side chain, Y^III” value ([1]; 1 week at 80° C.) is reported as 95% and the “conversion to 1,5-cz-[M(Lig)], Sc^III” value ([1]; 1 week at 80° C.) is reported as 0%. For the same compound, the “conversion to 1,5-cz-[M(Lig)], Y^III” value ([1]; 1 week at 80° C.) was 0%, the “conversion to 1,5-cz-[Ln(Lig)] with hydrolysed group in the side chain, Sc^III” value ([1]; 1 hour at 80° C.) was 0% and the “conversion to 1,5-cz-[Ln(Lig)] with hydrolysed group in the side chain, Y^III” value ([1]; 1 hour at 80° C.) was 12%. For the same compound, the “conversion to 1,5-cz-[M(Lig)], Sc^III” value ([1]; 1 hour at 80° C.) was 1%, the “conversion to 1,5-cz-[M(Lig)], Y^III” value ([1]; 1 hour at 80° C.) was 6% and the “conversion to 1,5-cz-[Ln(Lig)] with hydrolysed group in the side chain, Ce^III” value ([2]; after 1 week at 80° C.) was 37%. For the same compound, the “conversion to 1,5-cz-[Ln(Lig)], Ce^III” value ([2]; after 1 week at 80° C.) was 0%, the “conversion to 1,5-cz-[Ln(Lig)] with hydrolysed group in the side chain, Ce^III” value ([2]; after 1 hour at 80° C.) was 0% and the “conversion to 1,5-cz-[Ln(Lig)], Ce^III” value ([2]; after 1 hour at 80° C.) was 0%. For the same compound, the “conversion to 1,5-cz-[Ln(Lig)] with hydrolysed group in the side chain, Dy^III” value ([2]; after 1 week at 80° C.) was 94%, the “conversion to 1,5-cz-[Ln(Lig)], Dy^III” value ([2]; after 1 week at 80° C.) was 0% and the “conversion to 1,5-cz-[Ln(Lig)] with hydrolysed group in the side chain, Dy^III” value ([2]; after 1 hour at 80° C.) was 8%. The “conversion to 1,5-cz-[Ln(Lig)], Dy^III” value ([2]; after 1 hour at 80° C.) was 5%, the “conversion to 1,5-cz-[Ln(Lig)] with hydrolysed group in the side chain, Er^III” value ([2]; after 1 week at 80° C.) was 94% and the “conversion to 1,5-cz-[Ln(Lig)], Er^III” value ([2]; after 1 week at 80° C.) was 0%. The “conversion to 1,5-cz-[Ln(Lig)] with hydrolysed group in the side chain, Er^III” value ([2]; after 1 hour at 80° C.) was 19%, the “conversion to 1,5-cz-[Ln(Lig)], Er^III” value ([2]; after 1 hour at 80° C.) was 12% and the “conversion to 1,5-cz-[Ln(Lig)] with hydrolysed group in the side chain, Eu^III” value ([2]; after 1 week at 80° C.) was 91%. For the same compound, the “conversion to 1,5-cz-[Ln(Lig)], Eu^III” value ([2]; after 1 week at 80° C.) was 0%, the “conversion to 1,5-cz-[Ln(Lig)] with hydrolysed group in the side chain, Eu^III” value ([2]; after 1 hour at 80° C.) was 2% and the “conversion to 1,5-cz-[Ln(Lig)], Eu^III” value ([2]; after 1 hour at 80° C.) was 2%. The “conversion to 1,5-cz-[Ln(Lig)] with hydrolysed group in the side chain, Gd^III” value ([2]; after 1 week at 80° C.) was 92%, the “conversion to 1,5-cz-[Ln(Lig)], Gd^III” value ([2]; after 1 week at 80° C.) was 0% and the “conversion to 1,5-cz-[Ln(Lig)] with hydrolysed group in the side chain, Gd^III” value ([2]; after 1 hour at 80° C.) was 3%. The “conversion to 1,5-cz-[Ln(Lig)], Gd^III” value ([2]; after 1 hour at 80° C.) was 2%, the “conversion to 1,5-cz-[Ln(Lig)] with hydrolysed group in the side chain, Ho^III” value ([2]; after 1 week at 80° C.) was 94% and the “conversion to 1,5-cz-[Ln(Lig)], Ho^III” value ([2]; after 1 week at 80° C.) was 0%. For the same compound, the “conversion to 1,5-cz-[Ln(Lig)] with hydrolysed group in the side chain, Ho^III” value ([2]; after 1 hour at 80° C.) was 13%, the “conversion to 1,5-cz-[Ln(Lig)], Ho^III” value ([2]; after 1 hour at 80° C.) was 7% and the “conversion to 1,5-cz-[Ln(Lig)] with hydrolysed group in the side chain, La^III” value ([2]; after 1 week at 80° C.) was 40%. The “conversion to 1,5-cz-[Ln(Lig)], La^III” value ([2]; after 1 week at 80° C.) was 0%, the “conversion to 1,5-cz-[Ln(Lig)] with hydrolysed group in the side chain, La^III” value ([2]; after 1 hour at 80° C.) was 0% and the “conversion to 1,5-cz-[Ln(Lig)], La^III” value ([2]; after 1 hour at 80° C.) was 0%. For the same compound, the “conversion to 1,5-cz-[Ln(Lig)] with hydrolysed group in the side chain, Lu^III” value ([2]; after 1 week at 80° C.) was 97%, the “conversion to 1,5-cz-[Ln(Lig)], Lu^III” value ([2]; after 1 week at 80° C.) was 0% and the “conversion to 1,5-cz-[Ln(Lig)] with hydrolysed group in the side chain, Lu^III” value ([2]; after 1 hour at 80° C.) was 30%. For the same compound, the “conversion to 1,5-cz-[Ln(Lig)], Lu^III” value ([2]; after 1 hour at 80° C.) was 26%, the “conversion to 1,5-cz-[Ln(Lig)] with hydrolysed group in the side chain, Nd^III” value ([2]; after 1 week at 80° C.) was 73% and the “conversion to 1,5-cz-[Ln(Lig)], Nd^III” value ([2]; after 1 week at 80° C.) was 0%. For the same compound, the “conversion to 1,5-cz-[Ln(Lig)] with hydrolysed group in the side chain, Nd^III” value ([2]; after 1 hour at 80° C.) was 0%, the “conversion to 1,5-cz-[Ln(Lig)], Nd^III” value ([2]; after 1 hour at 80° C.) was 1% and the “conversion to 1,5-cz-[Ln(Lig)] with hydrolysed group in the side chain, Pr^III” value ([2]; after 1 week at 80° C.) was 62%. For the same compound, the “conversion to 1,5-cz-[Ln(Lig)], Pr^III” value ([2]; after 1 week at 80° C.) was 0%, the “conversion to 1,5-cz-[Ln(Lig)] with hydrolysed group in the side chain, Pr^III” value ([2]; after 1 hour at 80° C.) was 0% and the “conversion to 1,5-cz-[Ln(Lig)], Pr^III” value ([2]; after 1 hour at 80° C.) was 0%. For the same compound, the “conversion to 1,5-cz-[Ln(Lig)] with hydrolysed group in the side chain, Sm^III” value ([2]; after 1 week at 80° C.) was 88%, the “conversion to 1,5-cz-[Ln(Lig)], Sm^III” value ([2]; after 1 week at 80° C.) was 0% and the “conversion to 1,5-cz-[Ln(Lig)] with hydrolysed group in the side chain, Sm^III” value ([2]; after 1 hour at 80° C.) was 2%. For the same compound, the “conversion to 1,5-cz-[Ln(Lig)], Sm^III” value ([2]; after 1 hour at 80° C.) was 1%, the “conversion to 1,5-cz-[Ln(Lig)] with hydrolysed group in the side chain, Tb^III” value ([2]; after 1 week at 80° C.) was 93% and the “conversion to 1,5-cz-[Ln(Lig)], Tb^III” value ([2]; after 1 week at 80° C.) was 0%. The “conversion to 1,5-cz-[Ln(Lig)] with hydrolysed group in the side chain, Tb^III” value ([2]; after 1 hour at 80° C.) was 6%, the “conversion to 1,5-cz-[Ln(Lig)], Tb^III” value ([2]; after 1 hour at 80° C.) was 3% and the “conversion to 1,5-cz-[Ln(Lig)] with hydrolysed group in the side chain, Tm^III” value ([2]; after 1 week at 80° C.) was 95%. The “conversion to 1,5-cz-[Ln(Lig)], Tm^III” value ([2]; after 1 week at 80° C.) was 0%, the “conversion to 1,5-cz-[Ln(Lig)] with hydrolysed group in the side chain, Tm^III” value ([2]; after 1 hour at 80° C.) was 26% and the “conversion to 1,5-cz-[Ln(Lig)], Tm^III” value ([2]; after 1 hour at 80° C.) was 19%. For the same compound, the “conversion to 1,5-cz-[Ln(Lig)] with hydrolysed group in the side chain, Yb^III” value ([2]; after 1 week at 80° C.) was 96%, the “conversion to 1,5-cz-[Ln(Lig)], Yb^III” value ([2]; after 1 week at 80° C.) was 0% and the “conversion to 1,5-cz-[Ln(Lig)] with hydrolysed group in the side chain, Yb^III” value ([2]; after 1 hour at 80° C.) was 30%. The “conversion to 1,5-cz-[Ln(Lig)], Yb^III” value ([2]; after 1 hour at 80° C.) was 24%.
